In ChEMBL document CHEMBL5465560, “Selectivity Literature for EUbOPEN Chemogenomic Library” (2024):

How the values were obtained:
[1] = biological target: Vascular endothelial growth factor receptor 2 (Homo sapiens, UniProt P35968); assay: Selectivity interaction (Kinase panel (Eurofins)) EUB0001564a KDR; conditions: at 1 µM
[2] = biological target: Atypical kinase COQ8A, mitochondrial (Homo sapiens, UniProt Q8NI60); conditions: at 10 µM
[3] = biological target: Activin receptor type-2B (Homo sapiens) (UniProt Q13705); assay: Selectivity interaction (Ambit KINOMEscan and KiNATiv profiling in Jurkat cells) EUB0000090b ACVR2B; assay type: cell-based; conditions: at 1 µM
[4] = biological target: Receptor tyrosine-protein kinase erbB-4 (Homo sapiens, UniProt Q15303); assay: Selectivity interaction (Millipore kinase profiler) EUB0000124b ERBB4; conditions: at 10 µM
[5] = biological target: 5'-AMP-activated protein kinase catalytic subunit alpha-2 (Homo sapiens) (UniProt P54646); assay: Selectivity interaction (KinomeScan (DiscoverX)) EUB0000618a PRKAA2; conditions: at 10 µM
[6] = biological target: Serine/threonine-protein kinase B-raf (Homo sapiens) (UniProt P15056); assay: Selectivity interaction (ActivX KiNativ screen (ex vivo kinase selectivity in human PBMCs)) EUB0001619a BRAF; assay type: cell-based; conditions: PBMC, at 1 µM
[7] = biological target: Ephrin type-A receptor 2 (Homo sapiens) (UniProt P29317); assay: Selectivity interaction (Kinase panel (DSF assay)) EUB0001558a EPHA2
[8] = biological target: Vascular endothelial growth factor receptor 1 (Homo sapiens) (UniProt P17948); assay: Selectivity interaction (Kinase panel (DSF assay)) EUB0001558a FLT1
[9] = biological target: T1, Serine/threonine-protein kinase Nek8 (Homo sapiens) (UniProt Q86SG6); assay: Selectivity interaction (Kinase panel (KiNativ target engagement assay in Jurkat cells)) EUB0001635a NEK8; assay type: cell-based; conditions: at 1 µM
T1 sequence (whole entry): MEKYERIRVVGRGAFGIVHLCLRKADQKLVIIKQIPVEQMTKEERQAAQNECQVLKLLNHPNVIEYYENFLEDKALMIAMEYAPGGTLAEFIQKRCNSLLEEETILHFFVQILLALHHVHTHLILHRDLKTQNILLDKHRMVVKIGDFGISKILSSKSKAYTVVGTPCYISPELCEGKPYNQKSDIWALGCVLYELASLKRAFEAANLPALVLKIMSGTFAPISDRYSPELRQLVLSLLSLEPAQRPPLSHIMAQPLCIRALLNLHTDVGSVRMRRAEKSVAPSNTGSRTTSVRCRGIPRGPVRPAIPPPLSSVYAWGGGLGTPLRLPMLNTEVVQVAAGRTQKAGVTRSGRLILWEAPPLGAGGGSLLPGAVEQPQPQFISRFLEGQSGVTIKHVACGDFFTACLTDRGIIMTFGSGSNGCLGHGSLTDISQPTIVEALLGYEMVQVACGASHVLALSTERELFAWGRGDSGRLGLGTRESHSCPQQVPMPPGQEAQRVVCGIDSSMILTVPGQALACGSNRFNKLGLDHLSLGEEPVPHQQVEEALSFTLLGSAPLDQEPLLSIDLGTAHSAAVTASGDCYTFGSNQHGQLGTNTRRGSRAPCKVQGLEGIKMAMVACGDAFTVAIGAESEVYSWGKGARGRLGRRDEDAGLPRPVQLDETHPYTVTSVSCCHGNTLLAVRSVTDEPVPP

[10] = biological target: T2, Mitogen-activated protein kinase kinase kinase 3 (Homo sapiens) (UniProt Q99759); assay: Selectivity interaction (KinomeScan (DiscoverX)) EUB0000229b MAP3K3; conditions: at 10 µM
T2 sequence (whole entry): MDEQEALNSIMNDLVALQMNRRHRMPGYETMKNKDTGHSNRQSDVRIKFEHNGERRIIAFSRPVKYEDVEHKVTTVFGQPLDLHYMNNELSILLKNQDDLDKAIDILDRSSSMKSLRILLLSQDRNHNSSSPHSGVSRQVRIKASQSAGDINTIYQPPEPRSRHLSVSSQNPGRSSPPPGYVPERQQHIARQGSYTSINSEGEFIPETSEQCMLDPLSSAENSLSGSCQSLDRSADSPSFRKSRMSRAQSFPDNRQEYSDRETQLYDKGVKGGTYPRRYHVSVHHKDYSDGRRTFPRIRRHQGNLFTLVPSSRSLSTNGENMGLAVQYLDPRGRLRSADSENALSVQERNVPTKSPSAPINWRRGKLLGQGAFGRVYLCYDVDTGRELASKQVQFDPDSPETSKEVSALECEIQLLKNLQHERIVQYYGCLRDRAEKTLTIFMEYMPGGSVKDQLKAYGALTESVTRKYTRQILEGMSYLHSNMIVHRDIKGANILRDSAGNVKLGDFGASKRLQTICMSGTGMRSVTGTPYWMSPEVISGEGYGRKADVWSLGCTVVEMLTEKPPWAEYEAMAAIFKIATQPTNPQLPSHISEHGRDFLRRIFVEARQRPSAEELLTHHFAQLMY

[11] = biological target: Serine/threonine-protein kinase 16 (Homo sapiens, UniProt O75716); assay: Selectivity interaction (KinomeScan (DiscoverX)) EUB0000666a STK16; conditions: at 10 µM
[12] = biological target: Misshapen-like kinase 1 (Homo sapiens, UniProt Q8N4C8); assay: Selectivity interaction (Kinase screening (Nanosyn)) EUB0000604a MINK1
[13] = biological target: Transient receptor potential cation channel subfamily M member 6 (Homo sapiens) (UniProt Q9BX84); assay: Selectivity interaction (KinomeScan (DiscoverX)) EUB0000695a TRPM6; conditions: at 100 nM

Misshapen-like kinase 1, sequence (Q8N4C8 whole entry, looked up): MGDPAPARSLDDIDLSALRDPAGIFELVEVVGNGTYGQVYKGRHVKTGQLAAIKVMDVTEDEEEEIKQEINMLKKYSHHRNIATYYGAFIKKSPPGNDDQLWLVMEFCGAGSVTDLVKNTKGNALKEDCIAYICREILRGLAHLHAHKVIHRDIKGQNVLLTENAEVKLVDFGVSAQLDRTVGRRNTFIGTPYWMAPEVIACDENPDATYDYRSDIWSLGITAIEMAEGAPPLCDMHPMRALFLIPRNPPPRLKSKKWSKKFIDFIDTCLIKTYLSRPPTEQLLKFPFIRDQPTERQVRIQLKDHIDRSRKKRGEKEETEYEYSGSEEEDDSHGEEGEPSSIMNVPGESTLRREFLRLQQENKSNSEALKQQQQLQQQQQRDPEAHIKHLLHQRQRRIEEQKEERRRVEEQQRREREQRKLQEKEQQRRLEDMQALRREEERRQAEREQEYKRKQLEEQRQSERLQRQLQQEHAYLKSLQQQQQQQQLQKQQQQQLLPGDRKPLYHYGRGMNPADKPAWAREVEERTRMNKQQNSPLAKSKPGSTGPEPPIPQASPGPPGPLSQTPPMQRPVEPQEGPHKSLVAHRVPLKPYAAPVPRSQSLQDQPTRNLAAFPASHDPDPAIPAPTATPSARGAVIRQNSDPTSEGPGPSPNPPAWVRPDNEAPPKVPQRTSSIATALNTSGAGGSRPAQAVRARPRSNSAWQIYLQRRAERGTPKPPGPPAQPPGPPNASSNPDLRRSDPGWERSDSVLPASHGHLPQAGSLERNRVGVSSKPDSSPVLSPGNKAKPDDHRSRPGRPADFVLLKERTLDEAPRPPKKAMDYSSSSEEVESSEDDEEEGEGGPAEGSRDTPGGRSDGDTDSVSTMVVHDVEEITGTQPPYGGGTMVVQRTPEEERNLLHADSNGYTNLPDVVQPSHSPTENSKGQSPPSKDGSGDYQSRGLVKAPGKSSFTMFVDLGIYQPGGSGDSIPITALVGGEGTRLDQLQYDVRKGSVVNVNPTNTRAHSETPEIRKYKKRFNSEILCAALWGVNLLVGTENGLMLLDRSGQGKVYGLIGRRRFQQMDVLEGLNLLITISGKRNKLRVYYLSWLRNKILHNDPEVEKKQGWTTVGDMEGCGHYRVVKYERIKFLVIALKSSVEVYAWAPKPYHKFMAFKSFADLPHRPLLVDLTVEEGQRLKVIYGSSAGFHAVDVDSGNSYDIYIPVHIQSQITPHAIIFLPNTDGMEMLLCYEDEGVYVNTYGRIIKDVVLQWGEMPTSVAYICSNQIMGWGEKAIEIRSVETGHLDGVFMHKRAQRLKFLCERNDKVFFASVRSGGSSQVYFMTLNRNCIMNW
Vascular endothelial growth factor receptor 1 (Homo sapiens), sequence (P17948 whole entry): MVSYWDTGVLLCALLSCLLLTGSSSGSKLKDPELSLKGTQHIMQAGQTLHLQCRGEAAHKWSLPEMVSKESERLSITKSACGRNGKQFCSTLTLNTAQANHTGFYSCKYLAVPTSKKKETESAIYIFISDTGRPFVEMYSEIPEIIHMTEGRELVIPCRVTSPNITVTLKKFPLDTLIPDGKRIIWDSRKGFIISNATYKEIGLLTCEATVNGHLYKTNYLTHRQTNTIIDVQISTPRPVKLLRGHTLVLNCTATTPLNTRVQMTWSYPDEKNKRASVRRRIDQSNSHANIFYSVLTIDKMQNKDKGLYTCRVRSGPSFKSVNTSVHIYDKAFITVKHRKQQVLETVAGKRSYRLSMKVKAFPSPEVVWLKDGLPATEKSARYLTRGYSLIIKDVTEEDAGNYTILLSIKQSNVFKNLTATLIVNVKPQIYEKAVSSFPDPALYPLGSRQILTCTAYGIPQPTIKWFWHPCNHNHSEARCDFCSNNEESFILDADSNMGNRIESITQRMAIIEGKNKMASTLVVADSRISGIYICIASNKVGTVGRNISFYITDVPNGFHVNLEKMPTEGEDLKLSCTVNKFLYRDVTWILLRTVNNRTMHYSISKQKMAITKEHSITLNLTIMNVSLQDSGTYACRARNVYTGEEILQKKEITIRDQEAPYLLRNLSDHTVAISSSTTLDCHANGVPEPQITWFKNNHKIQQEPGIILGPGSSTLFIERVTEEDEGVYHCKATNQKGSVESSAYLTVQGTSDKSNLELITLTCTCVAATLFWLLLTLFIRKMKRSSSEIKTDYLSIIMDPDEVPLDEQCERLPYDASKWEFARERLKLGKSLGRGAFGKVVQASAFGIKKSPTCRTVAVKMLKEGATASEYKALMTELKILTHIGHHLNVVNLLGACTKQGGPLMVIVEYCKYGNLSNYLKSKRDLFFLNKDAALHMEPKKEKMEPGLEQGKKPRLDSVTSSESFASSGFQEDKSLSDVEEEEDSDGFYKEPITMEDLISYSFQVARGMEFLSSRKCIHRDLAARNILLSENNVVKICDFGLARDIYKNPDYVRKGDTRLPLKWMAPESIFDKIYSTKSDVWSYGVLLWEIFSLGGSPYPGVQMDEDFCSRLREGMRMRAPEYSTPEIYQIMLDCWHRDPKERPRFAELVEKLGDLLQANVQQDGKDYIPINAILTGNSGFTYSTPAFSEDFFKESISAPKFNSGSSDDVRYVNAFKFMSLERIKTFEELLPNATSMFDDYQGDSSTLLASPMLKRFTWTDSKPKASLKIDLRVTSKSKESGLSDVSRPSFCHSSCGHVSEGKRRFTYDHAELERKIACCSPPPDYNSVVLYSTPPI
Serine/threonine-protein kinase B-raf (Homo sapiens), sequence (P15056 whole entry): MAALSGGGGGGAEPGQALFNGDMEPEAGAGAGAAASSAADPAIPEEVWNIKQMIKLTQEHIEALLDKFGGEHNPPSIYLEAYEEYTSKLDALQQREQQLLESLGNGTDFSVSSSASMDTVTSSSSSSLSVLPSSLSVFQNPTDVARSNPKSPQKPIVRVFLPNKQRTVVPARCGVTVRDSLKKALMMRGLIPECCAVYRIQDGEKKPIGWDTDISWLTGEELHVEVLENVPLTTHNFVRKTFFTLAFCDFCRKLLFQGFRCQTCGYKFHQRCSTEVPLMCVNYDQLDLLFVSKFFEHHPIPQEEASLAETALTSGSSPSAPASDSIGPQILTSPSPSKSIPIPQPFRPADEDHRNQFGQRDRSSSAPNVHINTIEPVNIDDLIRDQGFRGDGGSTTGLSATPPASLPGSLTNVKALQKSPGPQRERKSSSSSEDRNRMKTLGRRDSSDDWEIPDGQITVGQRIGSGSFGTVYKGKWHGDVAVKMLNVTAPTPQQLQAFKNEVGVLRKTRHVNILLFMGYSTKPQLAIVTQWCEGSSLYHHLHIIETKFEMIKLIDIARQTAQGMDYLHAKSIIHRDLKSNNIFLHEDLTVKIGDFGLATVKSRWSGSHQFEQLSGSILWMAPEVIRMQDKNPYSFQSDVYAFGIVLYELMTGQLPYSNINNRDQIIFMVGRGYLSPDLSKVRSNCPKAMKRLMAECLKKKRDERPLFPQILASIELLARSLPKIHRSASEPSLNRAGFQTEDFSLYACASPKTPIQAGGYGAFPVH
Activin receptor type-2B (Homo sapiens), sequence (Q13705 whole entry): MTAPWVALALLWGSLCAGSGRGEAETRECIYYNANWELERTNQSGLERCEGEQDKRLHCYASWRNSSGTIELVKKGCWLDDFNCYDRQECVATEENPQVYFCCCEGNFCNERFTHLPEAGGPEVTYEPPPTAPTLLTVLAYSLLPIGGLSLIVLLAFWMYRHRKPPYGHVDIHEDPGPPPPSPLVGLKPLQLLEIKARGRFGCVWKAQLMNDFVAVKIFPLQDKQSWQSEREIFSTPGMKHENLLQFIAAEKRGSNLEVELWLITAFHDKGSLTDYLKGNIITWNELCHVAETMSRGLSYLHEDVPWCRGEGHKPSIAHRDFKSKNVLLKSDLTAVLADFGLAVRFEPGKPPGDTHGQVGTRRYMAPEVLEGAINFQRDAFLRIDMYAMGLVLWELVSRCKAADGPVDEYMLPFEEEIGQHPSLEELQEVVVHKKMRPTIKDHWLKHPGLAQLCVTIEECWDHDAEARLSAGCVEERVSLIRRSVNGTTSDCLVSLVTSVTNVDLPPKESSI
Serine/threonine-protein kinase 16, sequence (O75716 whole entry): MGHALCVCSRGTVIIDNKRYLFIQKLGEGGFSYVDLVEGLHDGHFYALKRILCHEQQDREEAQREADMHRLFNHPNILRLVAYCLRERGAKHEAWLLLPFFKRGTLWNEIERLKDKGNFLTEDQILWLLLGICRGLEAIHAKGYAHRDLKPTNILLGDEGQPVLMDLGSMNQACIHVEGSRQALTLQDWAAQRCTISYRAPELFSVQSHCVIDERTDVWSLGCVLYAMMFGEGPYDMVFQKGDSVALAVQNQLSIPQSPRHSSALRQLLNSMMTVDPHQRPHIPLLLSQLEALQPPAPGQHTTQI
Atypical kinase COQ8A, mitochondrial, sequence (Q8NI60 163-647 limits assumed): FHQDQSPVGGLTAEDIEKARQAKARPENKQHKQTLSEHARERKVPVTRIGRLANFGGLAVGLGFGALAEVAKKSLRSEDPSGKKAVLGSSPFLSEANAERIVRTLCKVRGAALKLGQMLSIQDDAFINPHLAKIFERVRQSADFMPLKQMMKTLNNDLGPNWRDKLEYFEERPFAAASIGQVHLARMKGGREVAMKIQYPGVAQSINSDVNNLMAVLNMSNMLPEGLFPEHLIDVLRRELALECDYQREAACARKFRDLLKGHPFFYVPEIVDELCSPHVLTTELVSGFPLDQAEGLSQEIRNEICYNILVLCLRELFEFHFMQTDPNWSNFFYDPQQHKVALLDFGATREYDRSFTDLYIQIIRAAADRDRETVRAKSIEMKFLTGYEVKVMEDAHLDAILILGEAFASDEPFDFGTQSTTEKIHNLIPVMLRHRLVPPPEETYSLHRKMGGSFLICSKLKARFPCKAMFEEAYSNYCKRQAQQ

Structure (SMILES): CC[C@@H](Nc1c(C#N)c(-c2ccc(-c3cccc(C)c3F)cc2)nc2cnccc12)C(=O)O [BAY-091]
- % of inhibition [1]: 50.1%

Structure (SMILES): CCN(CC)CCCCNc1ncc2cc(-c3cc(OC)cc(OC)c3)c(NC(=O)NC(C)(C)C)nc2n1
- % of control [2]: 100%

Structure (SMILES): CN(C)C/C=C/C(=O)Nc1ccc(C(=O)N2CCCC(Nc3ncc(Cl)c(-c4c[nH]c5ccccc45)n3)C2)cc1 (stereo not drawn)
- % of control [3]: 77%

Structure (SMILES): CC(=O)Nc1cccc(-n2c(=O)n(C3CC3)c(=O)c3c(Nc4ccc(I)cc4F)n(C)c(=O)c(C)c32)c1
- % of control [4]: 101%

Structure (SMILES): O[C@H]1CC[C@H](Nc2ncc3nc(Nc4c(F)cc(F)cc4F)n([C@H]4CCOC4)c3n2)CC1
- % of control [5]: 100%

Structure (SMILES): N#Cc1cccc(-c2c[nH]c3ncnc(N4CCOCC4)c23)c1
- % of inhibition [6]: -1%

Structure (SMILES): CC(C)(O)[C@H](F)CN1Cc2cc(NC(=O)c3cnn4cccnc34)c(N3CCOCC3)cc2C1=O
- dTM [7]: 3.4 K
- dTM [8]: 3.3 K

Structure (SMILES): C=CC(=O)Nc1ccc(C(=O)Nc2[nH]nc3c2CN(C(=O)N[C@H](CN(C)C)c2ccccc2)C3(C)C)cc1
- % of engagement [9]: -10.5%

Structure (SMILES): COc1cc(N(C)c2ccnc3ccc(C(F)(F)F)cc23)cc(OC)c1OC
- % binding [10]: 89%

Structure (SMILES): O=C(NOC[C@H](O)CO)c1ccc(F)c(F)c1Nc1ccc(I)cc1F
- % of control [11]: 99%

Structure (SMILES): Cc1cnc(Nc2ccc(F)cc2Cl)nc1-c1c[nH]c(C(=O)N[C@H](CO)c2cccc(Cl)c2)c1
- % of inhibition [12]: 18%

Structure (SMILES): Cc1cc(F)c(C(=O)Nc2cccc(-c3nncn3C(C)C)n2)cc1-n1cnc(C2CC2)c1
- % of control [13]: 100%
